test system: HCT116 WT; assay: Proliferation of HCT116 colorectal cell line, Cell TiterGlo; format: cell-based, human; settings: Homo sapiens, HCT-116, read-out: HCT116 IC50 (uM) HCT116 WT
Method: Briefly, compounds were tested for their effect on proliferation of HCT116 colorectal cell lines using Cell TiterGlo (Promega). Each compound was tested in a 10-point dose response experiment in triplicate. Multiple values in the column titled HCT116 WT reflect separate independent experiments. The three columns titled “HCT116 WT (repeat)”, “HCT116-CGN2KO” and “HCT116 WT+ISRIB” provide data for selected compounds that were tested simultaneously under three conditions. The HCT116 WT column lists IC50 against the wild type HCT116 colorectal cancer cell line. The HCT116-CGN2KO lists IC50 data for cells in which one component of the integrated stress response, GCN2, has been knocked out using CRISPR technology.

Structure (SMILES)	IC50 [µM]
CSc1cccc(C(=O)Nc2cc(-c3ccc(NC(=O)c4ccccc4)cc3)nn2C)c1 [SW389160, N-(3-(4-Benzamidophenyl)-1-methyl-1H-pyrazol-5-yl)-3-(methylthio)benzamide]	0.226
Cn1nc(-c2ccc(NC(=O)c3ccccc3COCCN=[N+]=[N-])cc2)cc1NC(=O)c1cccc(C2(C(F)(F)F)N=N2)c1 [SW394739, 2-((2-azidoethoxy)methyl)-N-(4-(1-methyl-5-(3-(3-(trifluoromethyl)-3H-diazirin-3-yl)benzamido)-1H-pyrazol-3-yl)phenyl)benzamide]	0.4

same assay, conditions: Homo sapiens, HCT-116, read-out: HCT116 IC50 (uM) HCT116 WT (repeat)

Structure (SMILES)	IC50 [µM]
CSc1cccc(C(=O)Nc2cc(-c3ccc(NC(=O)c4ccccc4)cc3)nn2C)c1 [SW389160, N-(3-(4-Benzamidophenyl)-1-methyl-1H-pyrazol-5-yl)-3-(methylthio)benzamide]	0.29

same assay, conditions: Homo sapiens, HCT-116, wild type HCT116; 10-point dose response in triplicate; multiple values = separate independent experiments; read-out: HCT116 IC50 (uM) HCT116 WT

Structure (SMILES)	IC50 [µM]
O=C(Nc1nc(-c2ccc(NC(=O)c3ccccc3Cl)cc2)cs1)c1ccccc1 [SW393296, N-(4-(2-Benzamidothiazol-4-yl)phenyl)-2-chlorobenzamide]	1.9
Cn1nc(-c2ccc(NC(=O)c3ccccc3Cl)cc2)cc1NC(=O)c1cccc(OCCNC(=O)OC(C)(C)C)c1 [SW394968, tert-butyl (2-(3-((3-(4-(2-chlorobenzamido)phenyl)-1-methyl-1H-pyrazol-5-yl)carbamoyl)phenoxy)ethyl)carbamate]	0.062
COc1cccc(C(=O)Nc2cc(-c3ccc(NC(=O)OC(C)(C)C)cc3)nn2C)c1 [SW388712, tert-Butyl (4-(5-(3-methoxybenzamido)-1-methyl-1H-pyrazol-3-yl)phenyl)carbamate]	0.69
Cn1nc(-c2ccc(NC(=O)c3ccccc3Cl)cc2)cc1NC(=O)c1cccc(NC(=O)OC(C)(C)C)c1 [SW394897-1, tert-butyl (3-((3-(4-(2-chlorobenzamido)phenyl)-1-methyl-1H-pyrazol-5-yl)carbamoyl)phenyl)carbamate]	0.02
Cn1nc(-c2ccc(NC(=O)c3ccccc3Cl)cc2)cc1NC(=O)c1cccc(OCCNC(=S)Nc2ccc(-c3c4ccc(=O)cc-4oc4cc(O)ccc34)c(C(=O)O)c2)c1 [SW394972, 5-(3-(2-(3-((3-(4-(2-chlorobenzamido)phenyl)-1-methyl-1H-pyrazol-5-yl)carbamoyl)phenoxy)ethyl)thioureido)-2-(6-hydroxy-3-oxo-3H-xanthen-9-yl)benzoic acid]	1.3
Cc1ncccc1C(=O)Nc1ccc(-c2cc(NC(=O)c3ccccc3F)n(C)n2)cc1F [SW394745, N-(2-Fluoro-4-(5-(2-fluorobenzamido)-1-methyl-1H-pyrazol-3-yl)phenyl)-2-methylnicotinamide]	21.7
C#Cc1cccc(C(=O)Nc2cc(-c3ccc(NC(=O)c4ccccc4-c4ccc(N=[N+]=[N-])cc4)cc3)nn2C)c1 [SW394549, 4′-Azido-N-(4-(5-(3-ethynylbenzamido)-1-methyl-1H-pyrazol-3-yl)phe-nyl)[1,1′-biphenyl]-2-carboxamide]	4.1
COc1ccc(C(=O)Nc2cc(-c3ccc(NC(=O)OC(C)(C)C)cc3)nn2C)cc1 [SW388709, tert-Butyl-(4-(5-(4-methoxybenzamido)-1-methyl-1H-pyrazol-3-yl)phenyl)carbamate]	16
C#CCOCc1ccccc1C(=O)Nc1ccc(-c2cc(NC(=O)c3cccc(N=[N+]=[N-])c3)n(C)n2)cc1 [SW393280, N-(4-(5-(3-azidobenzamido)-1-methyl-1H-pyrazol-3-yl)phenyl)-2-((prop-2-yn-1-yloxy)methyl)benzamide]	0.12
Cn1nc(-c2ccc(NC(=O)c3ccccc3COCCNC(=O)CCCC[C@H]3SC[C@H]4NC(=O)N[C@H]43)cc2)cc1NC(=O)c1ccccc1 [SW394656, N-(4-(5-benzamido-1-methyl-1H-pyrazol-3-yl)phenyl)-2-((2-(5-((3aR,4R,6aS)-2-oxohexahydro-1H-thieno[3,4-d]imidazol-4-yl)pentanamido)ethoxy)methyl)benzamide]	0.071
C#Cc1cccc(C(=O)Nc2cc(-c3ccc(NC(=O)c4ccccc4COCCNC(=O)CCC4(C)N=N4)cc3)nn2C)c1 [SW394741, N-(4-(5-(3-ethynylbenzamido)-1-methyl-1H-pyrazol-3-yl)phenyl)-2-((2-(3-(3-methyl-3H-diazirin-3-yl)propanamido)ethoxy)methyl)benzamide]	0.17
Cn1nc(-c2ccc(NC(=O)c3ccccc3Cl)cc2)cc1NC(=O)c1cccc(CNC(=O)OC(C)(C)C)c1 [SW394896-1, tert-butyl (3-((3-(4-(2-chlorobenzamido)phenyl)-1-methyl-1H-pyrazol-5-yl)carbamoyl)benzyl)carbamate]	0.05
Cc1ncccc1C(=O)Nc1ccc(-c2cc(NC(=O)c3ccccc3F)n(C)n2)c(F)c1 [SW394695, N-(3-Fluoro-4-(5-(2-fluorobenzamido)-1-methyl-1H-pyrazol-3-yl)phenyl)-2-methylnicotinamide]	0.03
Cn1nc(C2CCC(NC(=O)c3ccccc3Cl)CC2)cc1NC(=O)c1ccccc1 (stereo not drawn) [SW394444, N-(4-(5-benzamido-1-methyl-1H-pyrazol-3-yl)cyclohexyl)-2-chlorobenzamide]	> 50
Cc1ncccc1C(=O)Nc1ccc(-c2cc(NC(=O)C3CCC(F)(F)CC3)n(C)n2)c(F)c1 [SW394696, N-(4-(5-(4,4-Difluorocyclohexane-1-carboxamido)-1-methyl-1H-pyrazol-3-yl)-3-fluorophen-yl)-2-methylnicotinamide]	0.09

Now from value to compound:

IC50 [µM]	Structure (SMILES)
0.01	Cc1ncccc1C(=O)Nc1ccc(-c2cc(NC(=O)c3cccc(N(C)C)c3)n(C)n2)cc1 [SW394871, N-(4-(5-(3-(Dimethylamino)benzamido)-1-methyl-1H-pyrazol-3-yl)phenyl)-2-methylnicotine-amide]
0.016	Cc1ncccc1C(=O)Nc1ccc(-c2cc(NC(=O)c3ccccc3)n(C)n2)cc1 [SW394518, N-(4-(5-Benzamido-1-methyl-1H-pyrazol-3-yl)phenyl)-2-methylnicotinamide]
0.023	C#Cc1cccc(C(=O)Nc2cc(-c3ccc(NC(=O)c4cccnc4Cl)cc3)nn2C)c1 [SW394487, 2-Chloro-N-(4-(5-(3-ethynylbenzamido)-1-methyl-1H-pyrazol-3-yl)phenyl)nicotinamide]
0.024	Cn1nc(-c2ccc(NC(=O)C3CCCCC3)cc2)cc1NC(=O)c1ccccc1 [SW394442, N-(3-(4-(Cyclohexanecarboxamido)phenyl)-1-methyl-1H-pyrazol-5-yl)benzamide]
0.055	Cn1nc(-c2ccc(NC(=O)c3ccccc3Cl)cc2)cc1NC(=O)c1cccc(CN)c1 [SW394966, N-(4-(5-(3-(aminomethyl)benzamido)-1-methyl-1H-pyrazol-3-yl)phenyl)-2-chlorobenzamide]
0.07	Cc1c(-c2ccc(NC(=O)c3ccccc3Cl)cc2)nn(C)c1NC(=O)c1ccccc1 [SW393216, N-(4-(5-Benzamido-1,4-dimethyl-1H-pyrazol-3-yl)phenyl)-2-chlorobenzamide]
0.17	Cn1nc(-c2ccc(NC(=O)c3ccccc3Cl)cc2)cc1NC(=O)c1cccc(C#CCN)c1 [SW394693, N-(4-(5-(3-(3-aminoprop-1-yn-1-yl)benzamido)-1-methyl-1H-pyrazol-3-yl)phenyl)-2-chlorobenzamide]
0.086	Cn1nc(-c2ccc(NC(=O)c3cccc(CN)c3Cl)cc2)cc1NC(=O)c1ccccc1Cl [SW394771, 3-(aminomethyl)-2-chloro-N-(4-(5-(2-chlorobenzamido)-1-methyl-1H-pyrazol-3-yl)phenyl)benzamide]
0.55	Cc1ncncc1C(=O)Nc1ccc(-c2cc(NC(=O)c3ccccc3)n(C)n2)cc1 [SW394598, N-(4-(5-Benzamido-1-methyl-1H-pyrazol-3-yl)phenyl)-4-methylpyrimidine-5-carboxamide]
0.27	Cn1nc(-c2ccc(NC(=O)c3ccccc3C3CCNCC3)cc2)cc1NC(=O)c1ccccc1 [SW394767, N-(4-(5-benzamido-1-methyl-1H-pyrazol-3-yl)phenyl)-2-(piperidin-4-yl)benzamide]
0.022	Cn1nc(-c2ccc(NC(=O)c3cccnc3C(F)(F)F)cc2)cc1NC(=O)c1ccccc1Cl [SW394631, N-(4-(5-(2-Chlorobenzamido)-1-methyl-1H-pyrazol-3-yl)phenyl)-2-(trifluoromethyl)nicotinamide]

same assay, conditions: read-out: HCT116 IC50 (uM) HCT116 WT + ISRIB; wild type HCT116, compound plus 10 nM of ISRIB

Structure (SMILES)	IC50 [µM]
CSc1cccc(C(=O)Nc2cc(-c3ccc(NC(=O)c4ccccc4)cc3)nn2C)c1 [SW389160, N-(3-(4-Benzamidophenyl)-1-methyl-1H-pyrazol-5-yl)-3-(methylthio)benzamide]	2.48

same assay, conditions: wild type HCT116; 10-point dose response in triplicate; multiple values = separate independent experiments

HCT116 IC50 (uM) HCT116 WT	Structure (SMILES)
inactive	O=C(Nc1cccc(-c2ccc(NC(=O)c3ccccc3Cl)cc2)n1)c1ccccc1 [SW394535, N-(4-(6-benzamidopyridin-2-yl)phenyl)-2-chlorobenzamide]
inactive	Cn1nc(-c2ccc(NC(=O)c3ccccc3Cl)cc2)cc1NS(=O)(=O)c1ccccc1 [SW394768, 2-Chloro-N-(4-(1-methyl-5-(phenylsulfonamido)-1H-pyrazol-3-yl)phenyl)benzamide]
inactive	Cn1nc(-c2ccc(NC(=O)c3ccccc3Cl)cc2)cc1NC(=O)c1cccc(C(=O)O)c1 [SW394800, 3-((3-(4-(2-Chlorobenzamido)phenyl)-1-methyl-1H-pyrazol-5-yl)carbamoyl)benzoic acid]
inactive	COc1cccc(C(=O)Nc2cc(-c3ccc(N)cc3)nn2C)c1 [SW388715, N-(3-(4-Aminophenyl)-1-methyl-1H-pyrazol-5-yl)-3-methoxybenzamide]

same assay, conditions: wild type HCT116; 10-point dose response in triplicate; multiple values = separate independent experiments; read-out: HCT116 IC50 (uM) HCT116 WT

Structure (SMILES)	IC50 [µM]
C#CCOc1ccccc1C(=O)Nc1ccc(-c2cc(NC(=O)c3cccc(N=[N+]=[N-])c3)n(C)n2)cc1 [SW393066, N-(4-(5-(3-Azidobenzamido)-1-methyl-1H-pyrazol-3-yl)phenyl)-2-(prop-2-yn-1-yloxy)benza-mide]	9.4

same assay, conditions: wild type HCT116; tested simultaneously with GCN2KO and +ISRIB; read-out: HCT116 IC50 (uM) HCT116 WT (repeat)

Structure (SMILES)	IC50 [µM]
C#CCOc1ccccc1C(=O)Nc1ccc(-c2cc(NC(=O)c3cccc(N=[N+]=[N-])c3)n(C)n2)cc1 [SW393066, N-(4-(5-(3-Azidobenzamido)-1-methyl-1H-pyrazol-3-yl)phenyl)-2-(prop-2-yn-1-yloxy)benza-mide]	7.18
